Results from patent US6914045B2, “Glycopeptide antibiotics” (Wyeth Holdings Corporation, priority 2001, dated 2005).

Legend:
Assay in all cases: in vitro antibacterial evaluation, MIC by broth dilution
Assay type in all cases: cell-based
[1] = system: Enterococcus sp.; conditions: broth dilution, 18 hours at 35° C.
Method in brief: (§1)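 MIC = lowest antibiotic concentration preventing visible growth; inoculum 5×10^5 CFU/mL; drug range 64-0.06 μg/mL; Muller-Hinton II […]; NCCLS M7-A2 guidance.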

[2] = system: Escherichia coli
Method in brief: as §1

[3] = system: Staphylococcus sp.; conditions: broth dilution, 18 hours at 35° C.; for MIC Staphylococcus aureus (GC 1131): strain GC 1131
Method in brief: as §1

[4] = system: Streptococcus sp.; conditions: broth dilution, 18 hours at 35° C.
Method in brief: as §1

CC(c1ccccc1)C1NC(=O)CNC(=O)C(CO)NC(=O)C(C(O)C2CNC(=N)N2C2OC(CO)C(O)C(O)C2O)NC(=O)C(C(O)C2CNC(=N)N2)NC(=O)C(Cc2ccc(OC3OC(CO)C(OC4OC5COC(c6ccc7c(c6)OCCO7)OC5C(O)C4O)C(O)C3O)cc2)NC1=O (stereo not drawn) [Example 149]
2 µg/mL: MIC Enterococcus faecium (GC 4557) ([1]; Enterococcus faecium (GC 4557)) | MIC Enterococcus faecium (GC 4557) ([1]; strain GC 4557) | MIC Staphylococcus aureus (GC 1131) ([3]; inoculum 5×10^5 CFU/mL) | MIC Staphylococcus aureus (ATCC 29213) ([3]; strain ATCC 29213) | MIC Staphylococcus aureus (GC 1131) [3] | MIC Staphylococcus aureus (GC 3051) ([3]; strain GC 3051) | MIC Staphylococcus aureus (GC 4541) ([3]; strain GC 4541) | MIC Staphylococcus aureus (GC 4542) ([3]; strain GC 4542) | MIC Staphylococcus aureus-SMITH (GC 4543) ([3]; strain GC 4543) | MIC Staphylococcus aureus (GC 4544) ([3]; strain GC 4544) | MIC Staphylococcus aureus (GC 4545) ([3]; strain GC 4545) | MIC Staphylococcus aureus-SMITH (GC 4543) ([3]; strain SMITH GC 4543) | MIC Streptococcus pneumoniae (GC 4565) ([4]; Streptococcus pneumoniae (GC 4565)) | MIC Streptococcus pneumoniae (GC 4565) ([4]; strain GC 4565)
1 µg/mL: MIC Staphylococcus haemolyticus (GC 4546) ([3]; strain GC 4546) | MIC Coagulase Negative Staphylococcus (GC 4547) ([3]; strain GC 4547) | MIC Coagulase Negative Staphylococcus (GC 4548) ([3]; strain GC 4548) | MIC Coagulase Negative Staphylococcus (GC 4549) ([3]; strain GC 4549) | MIC Coagulase Negative Staphylococcus (GC 4551) ([3]; strain GC 4551) | MIC Coagulase Negative Staphylococcus (GC 6257) ([3]; strain GC 6257) | MIC Streptococcus agalactiae (GC 4564) ([4]; Streptococcus agalactiae (GC 4564)) | MIC Streptococcus agalactiae (GC 4564) ([4]; strain GC 4564)
8 µg/mL: MIC Enterococcus avium (GC 4558) ([1]; Enterococcus avium (GC 4558)) | MIC Enterococcus faecalis (ATCC 29212) ([1]; Enterococcus faecalis (ATCC 29212)) | MIC Enterococcus faecalis (GC 2242) ([1]; Enterococcus faecalis (GC 2242)) | MIC Enterococcus faecalis (GC 2691) ([1]; Enterococcus faecalis (GC 2691)) | MIC Enterococcus faecalis (GC 3059) ([1]; Enterococcus faecalis (GC 3059)) | MIC Enterococcus faecalis (GC 4552) ([1]; Enterococcus faecalis (GC 4552)) | MIC Enterococcus faecalis (GC 4553) ([1]; Enterococcus faecalis (GC 4553)) | MIC Enterococcus faecalis (GC 4554) ([1]; Enterococcus faecalis (GC 4554)) | MIC Enterococcus faecalis (GC 6189) ([1]; Enterococcus faecalis (GC 6189)) | MIC Enterococcus faecium (GC 2243) ([1]; Enterococcus faecium (GC 2243)) | MIC Enterococcus faecium (GC 4556) ([1]; Enterococcus faecium (GC 4556)) | MIC Enterococcus faecalis (ATCC 29212) ([1]; strain ATCC 29212) | MIC Enterococcus faecalis (GC 2242) ([1]; strain GC 2242) | MIC Enterococcus faecium (GC 2243) ([1]; strain GC 2243) | MIC Enterococcus faecalis (GC 2691) ([1]; strain GC 2691) | MIC Enterococcus faecalis (GC 3059) ([1]; strain GC 3059) | MIC Enterococcus faecalis (GC 4552) ([1]; strain GC 4552) | MIC Enterococcus faecalis (GC 4553) ([1]; strain GC 4553) | MIC Enterococcus faecalis (GC 4554) ([1]; strain GC 4554) | MIC Enterococcus faecium (GC 4556) ([1]; strain GC 4556) | MIC Enterococcus avium (GC 4558) ([1]; strain GC 4558) | MIC Enterococcus faecalis (GC 6189) ([1]; strain GC 6189)
<0.5 µg/mL: MIC Escherichia coli (GC 4560) ([2]; strain GC 4560, 18 hours at 35° C.) | MIC Streptococcus pneumoniae (ATCC 6301) ([4]; Streptococcus pneumoniae (ATCC 6301)) | MIC Streptococcus pneumoniae (GC 1894) ([4]; Streptococcus pneumoniae (GC 1894)) | MIC Streptococcus pyogenes (GC 4563) ([4]; Streptococcus pyogenes (GC 4563)) | MIC Streptococcus pneumoniae (ATCC 6301) ([4]; strain ATCC 6301) | MIC Streptococcus pneumoniae (GC 1894) ([4]; strain GC 1894) | MIC Streptococcus pyogenes (GC 4563) ([4]; strain GC 4563)
4 µg/mL: MIC Staphylococcus aureus (GC 3053) ([3]; strain GC 3053)
>64 µg/mL: MIC Escherichia coli (ATCC 25922) ([2]; strain ATCC 25922, 18 hours at 35° C.)
64 µg/mL: MIC Escherichia coli (GC 4559) ([2]; strain GC 4559, 18 hours at 35° C.)
